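Interpolation was linear, between the two tested concentrations surrounding the appropriate level; five concentrations were tested over 48 hours in 96-well plates. At the GI50, growth is halved. Definition used: TGI = concentration required for complete inhibition of growth.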
Assays:
Test in all cases: growth of human tumour cells (NCI), 48 h
COLO 205 colon = test system: COLO 205 colon
SNB-75 CNS = test system: SNB-75 CNS
K-562 leukemia = test system: K-562 leukemia
SK-MEL-2 melanoma = test system: SK-MEL-2 melanoma
RPMI-8226 leukemia = test system: RPMI-8226 leukemia
HOP-92 NSCLC = test system: HOP-92 NSCLC
TK-10 renal = test system: TK-10 renal
OVCAR-3 ovarian = test system: OVCAR-3 ovarian
HOP-62 NSCLC = test system: HOP-62 NSCLC
MCF7 breast = test system: MCF7 breast
A549 NSCLC = test system: A549 NSCLC
EKVX NSCLC = test system: EKVX NSCLC
HS 578T breast = test system: HS 578T breast
HCT-15 colon = test system: HCT-15 colon
NCI-H23 lung = test system: NCI-H23 lung
UACC-62 melanoma = test system: UACC-62 melanoma
SK-MEL-28 melanoma = test system: SK-MEL-28 melanoma
HT29 colon = test system: HT29 colon
SNB-19 CNS = test system: SNB-19 CNS
CCRF-CEM leukemia = test system: CCRF-CEM leukemia
M14 melanoma = test system: M14 melanoma
CAKI-1 renal = test system: CAKI-1 renal
RXF 393 renal = test system: RXF 393 renal
786-0 renal = test system: 786-0 renal
DU-145 prostate = test system: DU-145 prostate
NCI-H460 lung = test system: NCI-H460 lung
HL-60(TB) leukemia = test system: HL-60(TB) leukemia
SF-295 CNS = test system: SF-295 CNS
UO-31 renal = test system: UO-31 renal
HCT-116 colon = test system: HCT-116 colon
NCI-H522 lung = test system: NCI-H522 lung
T-47D breast = test system: T-47D breast
U251 CNS = test system: U251 CNS
LOX IMVI melanoma = test system: LOX IMVI melanoma
OVCAR-5 ovarian = test system: OVCAR-5 ovarian
IGROV1 ovarian = test system: IGROV1 ovarian
NCI-H226 lung = test system: NCI-H226 lung
SF-539 CNS = test system: SF-539 CNS
SF-268 CNS = test system: SF-268 CNS
A498 renal = test system: A498 renal
SK-MEL-5 melanoma = test system: SK-MEL-5 melanoma
NCI/ADR-RES ovarian = test system: NCI/ADR-RES ovarian
BT-549 breast = test system: BT-549 breast
KM12 colon = test system: KM12 colon
SN12C renal = test system: SN12C renal
SR leukemia = test system: SR leukemia
SK-OV-3 ovarian = test system: SK-OV-3 ovarian
MDA-MB-231 breast = test system: MDA-MB-231 breast
OVCAR-8 ovarian = test system: OVCAR-8 ovarian
UACC-257 melanoma = test system: UACC-257 melanoma
ACHN renal = test system: ACHN renal
MOLT-4 leukemia = test system: MOLT-4 leukemia
MALME-3M melanoma = test system: MALME-3M melanoma
SW-620 colon = test system: SW-620 colon
MDA-MB-435 = test system: MDA-MB-435
OVCAR-4 ovarian = test system: OVCAR-4 ovarian

O=C1c2ccccc2-c2c1c1c(NCCCO)nc3ccccc3c1n2Cc1ccccc1
GI50 (COLO 205 colon): 34.2 µM
TGI (COLO 205 colon): > 100 µM
GI50 (SNB-75 CNS): 20.7 µM
TGI (SNB-75 CNS): 39.8 µM
GI50 (K-562 leukemia): 15.5 µM
TGI (K-562 leukemia): 28.8 µM
GI50 (SK-MEL-2 melanoma): 20.4 µM
TGI (SK-MEL-2 melanoma): 52.3 µM
GI50 (RPMI-8226 leukemia): 14.3 µM
TGI (RPMI-8226 leukemia): 27.3 µM
GI50 (HOP-92 NSCLC): 12.3 µM
TGI (HOP-92 NSCLC): 27.6 µM
GI50 (TK-10 renal): 23 µM
TGI (TK-10 renal): 41.1 µM
GI50 (OVCAR-3 ovarian): 19.8 µM
TGI (OVCAR-3 ovarian): 45.9 µM
GI50 (HOP-62 NSCLC): 19.3 µM
TGI (HOP-62 NSCLC): 35.7 µM
GI50 (MCF7 breast): 17.2 µM
TGI (MCF7 breast): 31 µM
GI50 (A549 NSCLC): 29.7 µM
TGI (A549 NSCLC): 75.5 µM
GI50 (EKVX NSCLC): 27.5 µM
TGI (EKVX NSCLC): 64.4 µM
GI50 (HS 578T breast): 40.6 µM
TGI (HS 578T breast): > 100 µM
GI50 (HCT-15 colon): 37.5 µM
TGI (HCT-15 colon): > 100 µM
GI50 (NCI-H23 lung): 14.4 µM
TGI (NCI-H23 lung): 34.9 µM
GI50 (UACC-62 melanoma): 18.7 µM
TGI (UACC-62 melanoma): 36.5 µM
GI50 (SK-MEL-28 melanoma): 20.6 µM
TGI (SK-MEL-28 melanoma): 38.1 µM
GI50 (HT29 colon): 17.1 µM
TGI (HT29 colon): 30.8 µM
GI50 (SNB-19 CNS): 27.8 µM
TGI (SNB-19 CNS): 73.1 µM
GI50 (CCRF-CEM leukemia): 17.6 µM
TGI (CCRF-CEM leukemia): 45.9 µM
GI50 (M14 melanoma): 26.8 µM
TGI (M14 melanoma): 58.2 µM
GI50 (CAKI-1 renal): 18.6 µM
TGI (CAKI-1 renal): 38.4 µM
GI50 (RXF 393 renal): 32.5 µM
TGI (RXF 393 renal): 86.6 µM
GI50 (786-0 renal): 21.3 µM
TGI (786-0 renal): 43.7 µM
GI50 (DU-145 prostate): 16.3 µM
TGI (DU-145 prostate): 34.1 µM
GI50 (NCI-H460 lung): 17.5 µM
TGI (NCI-H460 lung): 38.1 µM
GI50 (HL-60(TB) leukemia): 12 µM
TGI (HL-60(TB) leukemia): 25.7 µM
GI50 (SF-295 CNS): 22.3 µM
TGI (SF-295 CNS): 45.3 µM
GI50 (UO-31 renal): 24.6 µM
TGI (UO-31 renal): 73.7 µM
GI50 (HCT-116 colon): 15.8 µM
TGI (HCT-116 colon): 35.1 µM
GI50 (NCI-H522 lung): 26 µM
TGI (NCI-H522 lung): 96.3 µM
GI50 (T-47D breast): 21 µM
TGI (T-47D breast): 46.4 µM
GI50 (U251 CNS): 20.8 µM
TGI (U251 CNS): 44.9 µM
GI50 (LOX IMVI melanoma): 15.9 µM
TGI (LOX IMVI melanoma): 30.9 µM
GI50 (OVCAR-5 ovarian): 18 µM
TGI (OVCAR-5 ovarian): 39.9 µM
GI50 (IGROV1 ovarian): 48.6 µM
TGI (IGROV1 ovarian): > 100 µM
GI50 (NCI-H226 lung): 41.3 µM
TGI (NCI-H226 lung): > 100 µM
GI50 (SF-539 CNS): 18.5 µM
TGI (SF-539 CNS): 36.7 µM
GI50 (SF-268 CNS): 22.7 µM
TGI (SF-268 CNS): 51.9 µM
GI50 (A498 renal): 21.6 µM
TGI (A498 renal): 48.6 µM
GI50 (SK-MEL-5 melanoma): 31 µM
TGI (SK-MEL-5 melanoma): > 100 µM
GI50 (NCI/ADR-RES ovarian): 18.2 µM
TGI (NCI/ADR-RES ovarian): 49.4 µM
GI50 (BT-549 breast): 21.1 µM
TGI (BT-549 breast): 43.7 µM
GI50 (KM12 colon): 31.3 µM
TGI (KM12 colon): > 100 µM
GI50 (SN12C renal): 26 µM
TGI (SN12C renal): 62.5 µM
GI50 (SR leukemia): 6.04 µM
TGI (SR leukemia): 24.1 µM
GI50 (SK-OV-3 ovarian): 21.9 µM
TGI (SK-OV-3 ovarian): 40.4 µM
GI50 (MDA-MB-231 breast): 20.7 µM
TGI (MDA-MB-231 breast): 42.7 µM
GI50 (OVCAR-8 ovarian): 35 µM
TGI (OVCAR-8 ovarian): > 100 µM
GI50 (UACC-257 melanoma): 41.3 µM
TGI (UACC-257 melanoma): > 100 µM
GI50 (ACHN renal): 21.4 µM
TGI (ACHN renal): 59.4 µM
GI50 (MOLT-4 leukemia): 5.94 µM
TGI (MOLT-4 leukemia): 42.8 µM
GI50 (MALME-3M melanoma): 19 µM
TGI (MALME-3M melanoma): 38.2 µM
GI50 (SW-620 colon): 27.4 µM
TGI (SW-620 colon): > 100 µM
GI50 (MDA-MB-435): 36 µM
TGI (MDA-MB-435): > 100 µM
GI50 (OVCAR-4 ovarian): 23 µM
TGI (OVCAR-4 ovarian): 57 µM
